Publication PMC8187944, “Discovery of Potent EGFR Inhibitors With 6-Arylureido-4-anilinoquinazoline Derivatives” (Frontiers in Pharmacology, 2021)
Like-named read-outs stand apart in the source and are kept apart here.

Legend:
[1] = system: MCF-7 cells; assay: Anti-proliferative assay, standard CCK-8 method; assay type: cell-based, human; conditions: read-out: Proliferative inhibition (IC50, μM) MCF-7
Text: (§1) All reagents and solvents met the criteria of analytical reagents before use. All cancer cell lines (A549, human non-small-cell lung cell line; HT-29, human colonic adenocarcinoma cell line; MCF-7, human breast cancer cell line) were purchased from Stem Cell Bank, Chinese Academy of Sciences. […] ADP-Glo™ kinase assay kits were provided by Promega (Beijing) Biotech Co., Ltd. (Beijing, China). All kinase subtypes were supplied by SignalChem (BC, Canada).
(§2) The designed 4-anilinoquinazoline derivatives were evaluated for their antitumor bioactivities in vitro against three human tumor cell lines (A549, HT-29, and MCF-7) using the standard CCK-8 method. The CCK-8 method is based on WST-8 dye, 2-(2-methoxy-4-nitrophenyl)-3-(4-nitrophenyl)-5-(2,4-disulfophenyl)-2H-tetrazolium. WST-8 can be bio-reduced by dehydrogenases in mitochondria into orange water-soluble formazan products. Briefly, selected cancer cells in the logarithmic growth phase (1 × 10^4) were inoculated in 96-well plates and further cultured in the incubator for 24 h. First, the target compounds were diluted to different concentrations with culture medium with each dilution gradually diluted from the highest concentration solution. Second, the original culture medium was removed after the cells were completely adherent to the wall, and the compounds at various concentrations prepared above were added. In this experiment, a control group and a blank group were set: the former was treated with 0.1% DMSO solution, and the latter was treated with only the culture medium. […] A microplate reader was adopted to record the absorbance at 450 nm, and in this assay, gefitinib, erlotinib, and sorafenib were used as the reference drugs.

[2] = system: HT-29 cells; assay: Anti-proliferative assay, standard CCK-8 method; assay type: cell-based, human; conditions: mean ± SD of at least three independent experiments, read-out: Proliferative inhibition (IC50, μM) HT-29
Text: as §1, §2

[3] = system: A549 cells; assay: Anti-proliferative assay, standard CCK-8 method; assay type: cell-based, human; conditions: mean ± SD of at least three independent experiments, read-out: Proliferative inhibition (IC50, μM) A549
Text: as §1, §2

[4] = target: T1, EGFR (Homo sapiens, UniProt P00533); assay: EGFR kinase inhibition, ADP-Glo assay; assay type: biochemical; conditions: ADP-Glo; mean ± SD of at least two independent experiments; read-out: Enzymatic inhibition IC50 (nM) EGFR
T1 construct: 2 μl (50 ng/ml) of EGFR kinase
Method: The EGFR kinase inhibition activities of the target compounds were evaluated by the ADP-Glo™ assay. The ADP-Glo™ kinase detection kit is a luminescence kinase detection approach that detects the amount of ADP produced by the kinase reaction. After ADP is converted into ATP, ATP can be used as the substrate of the luciferase-catalyzed reaction to generate an optical signal, which is positively correlated with kinase activity. […] The above-prepared systems were sealed and incubated at room temperature for 2 h, and 5 μl of ADP-GLO was added to terminate the kinase reaction. Then, the culture plate was sealed and incubated in a thermostatic oscillator for 40 min to fully consume the remaining ATP. The luciferase/luciferin reaction was adopted to determine the newly generated ATP level.

[5] = system: A549, HT-29, and MCF-7 cells; assay: Anti-proliferative assay, CCK-8, summaries over all three cell lines; assay type: cell-based; conditions: Homo sapiens, span over A549, HT-29 and MCF-7 cells, read-out: IC50 against the selected cell lines
Text: as §1, §2

[6] = mean ± SD of at least three independent experiments
[7] = Homo sapiens, MCF7, mean ± SD of at least three independent experiments

## Cc1ccc(NC2NC=Nc3ccc(NC(=O)Nc4ccc(Cl)c(C(F)(F)F)c4)cc32)cc1 (stereo not drawn) [Compound 7m, 1-(4-chloro-3-(trifluoromethyl)phenyl)-3-(4-(p-tolylamino)-3,4-dihydroquina-zolin-6-yl) urea]
[1]; [6]
  IC50: 5.53 ± 0.39 µM
[2]
  IC50: 2.61 ± 1.25 µM
[3]
  IC50: 5.6 ± 0.31 µM

## O=C(Nc1ccccc1)Nc1ccc2ncnc(Nc3ccc(F)cc3)c2c1 [Compound 7f]
[1]; [7]
  IC50: 44.3 ± 1.12 µM
[2]; Homo sapiens
  IC50: 48.3 ± 0.78 µM
[3]; Homo sapiens
  IC50: > 50 µM
other
  melting point: 252.8 to 253.5 °C
[4]
  IC50: 11.7 ± 0.79 nM

## CNC(=O)c1cc(Oc2ccc(NC(=O)Nc3ccc(Cl)c(C(F)(F)F)c3)cc2)ccn1 [Sorafenib, sorafenib, reference compound]
[1]; [7]
  IC50: 3.47 ± 0.39 µM
[2]; Homo sapiens
  IC50: 2.27 ± 0.43 µM
[3]; Homo sapiens
  IC50: 1.84 ± 0.17 µM
[5]
  IC50: 1.84 to 23.2 µM

## O=C(Nc1ccccc1)Nc1ccc2ncnc(Nc3ccc(F)c(Cl)c3)c2c1 [Compound 7d]
[1]; [7]
  IC50: 44.2 ± 0.97 µM
[2]; Homo sapiens
  IC50: 39.2 ± 2.01 µM
[3]; Homo sapiens
  IC50: 38.65 ± 0.21 µM
other
  melting point: 233 to 233.7 °C
[4]
  IC50: 11.8 ± 0.36 nM

## 1-(4-chloro-3-(trifluoromethyl) phenyl)-3-(4-((2,3-dimethylphenyl) amino)-3,4-dihydroquinazolin-6-yl) urea [Compound 7n]
[1]; [6]
  IC50: 3.11 ± 0.3 µM
[2]
  IC50: 2.67 ± 1.02 µM
[3]
  IC50: 2.67 ± 0.76 µM

## 1-(4-chloro-3-(trifluoromethyl) phenyl)-3-(4-((2,3-dimethylphenyl) amino)-3,4-dihydroquinazolin-6-yl) urea [Compound 7t]
[1]; [6]
  IC50: > 50 µM
[2]
  IC50: 48.3 ± 1.9 µM
[3]
  IC50: > 50 µM
[4]
  IC50: 728.1 ± 1.65 nM

## O=C(Nc1ccccc1)Nc1ccc2ncnc(Nc3cccc(Br)c3)c2c1 [Compound 7a]
[1]; [7]
  IC50: 15.9 ± 2.28 µM
[2]; Homo sapiens
  IC50: 4.66 ± 0.56 µM
[3]; Homo sapiens
  IC50: 5.81 ± 0.84 µM
other
  melting point: 250 to 250.9 °C

## O=C(Nc1ccccc1)Nc1ccc2ncnc(Nc3ccc(Br)cc3F)c2c1 [Compound 7c]
[1]; [7]
  IC50: 8.57 ± 0.27 µM
[2]; Homo sapiens
  IC50: 5.92 ± 1.04 µM
[3]; Homo sapiens
  IC50: 6.16 ± 0.45 µM
other
  melting point: 256 to 256.8 °C
[4]
  IC50: 20.1 ± 2.21 nM

## Cc1cccc(Nc2ncnc3ccc(NC(=O)Nc4ccccc4)cc23)c1C [Compound 7h]
[1]; [7]
  IC50: > 50 µM
[2]; Homo sapiens
  IC50: > 50 µM
[3]; Homo sapiens
  IC50: > 50 µM
other
  melting point: 242.8 to 243.7 °C
[5]
  IC50: > 50 µM
[4]
  IC50: 19.7 ± 1.87 nM

## C#Cc1cccc(Nc2ncnc3cc(OCCOC)c(OCCOC)cc23)c1 [Erlotinib, erlotinib, reference compound]
[1]; [7]
  IC50: 11.4 ± 0.43 µM
[2]; Homo sapiens
  IC50: 22.8 ± 1.12 µM
[3]; Homo sapiens
  IC50: 23.2 ± 0.51 µM
[5]
  IC50: 1.84 to 23.2 µM

## Cc1ccc(Nc2ncnc3ccc(NC(=O)Nc4ccc(F)cc4)cc23)cc1 [Compound 7o]
[1]; [7]
  IC50: 33.7 ± 10.1 µM
[2]; Homo sapiens
  IC50: 7.83 ± 0.97 µM
[3]; Homo sapiens
  IC50: 35.3 ± 0.57 µM
other
  melting point: 247.2 to 248.4 °C
[4]
  IC50: 123.9 ± 1.09 nM

## COc1ccc(NC(=O)Nc2ccc3ncnc(Nc4cccc(C)c4C)c3c2)cc1 [Compound 7p]
[1]; [7]
  IC50: 40.2 ± 2.13 µM
[2]; Homo sapiens
  IC50: 11.1 ± 0.39 µM
[3]; Homo sapiens
  IC50: 9.34 ± 0.73 µM
other
  melting point: 241.1 to 242.7 °C
[4]
  IC50: 58.1 ± 1.99 nM

## COc1ccc(NC(=O)Nc2ccc3ncnc(Nc4ccc(Br)cc4)c3c2)cc1 [Compound 7q]
[1]; [7]
  IC50: 17.9 ± 0.89 µM
[2]; Homo sapiens
  IC50: 36.96 ± 0.17 µM
[3]; Homo sapiens
  IC50: 5.21 ± 0.3 µM
other
  melting point: 267.1 to 268.2 °C
[4]
  IC50: 470.4 ± 1.28 nM

## COc1ccc(NC(=O)Nc2ccc3ncnc(Nc4ccc(F)cc4)c3c2)cc1 [Compound 7r]
[1]; [7]
  IC50: 46.1 ± 1.98 µM
[2]; Homo sapiens
  IC50: 48.21 ± 0.23 µM
[3]; Homo sapiens
  IC50: > 50 µM
other
  melting point: 250.2 to 251.8 °C
[4]
  IC50: 59.7 ± 1.31 nM

## O=C(Nc1ccc(Cl)c(C(F)(F)F)c1)Nc1ccc2ncnc(Nc3ccc(Br)cc3)c2c1 [Compound 7k]
[1]; [7]
  IC50: 3.54 ± 0.07 µM
[2]; Homo sapiens
  IC50: 2.3 ± 0.5 µM
[3]; Homo sapiens
  IC50: 2.79 ± 0.44 µM
other
  melting point: 269.8 to 271.1 °C

## COc1ccc(NC(=O)Nc2ccc3ncnc(Nc4ccc(C)cc4)c3c2)cc1 [Compound 7s]
[1]; [7]
  IC50: 47.6 ± 0.76 µM
[2]; Homo sapiens
  IC50: 46.2 ± 0.57 µM
[3]; Homo sapiens
  IC50: > 50 µM
other
  melting point: 259.5 to 260.1 °C
[4]
  IC50: 108 ± 2.64 nM
